In ChEMBL document CHEMBL3886745, “Pyrrolidine compounds” (2016):

Biological target: T1, Neuromedin-K receptor (Homo sapiens, UniProt P29371)
T1 sequence (P29371 whole entry): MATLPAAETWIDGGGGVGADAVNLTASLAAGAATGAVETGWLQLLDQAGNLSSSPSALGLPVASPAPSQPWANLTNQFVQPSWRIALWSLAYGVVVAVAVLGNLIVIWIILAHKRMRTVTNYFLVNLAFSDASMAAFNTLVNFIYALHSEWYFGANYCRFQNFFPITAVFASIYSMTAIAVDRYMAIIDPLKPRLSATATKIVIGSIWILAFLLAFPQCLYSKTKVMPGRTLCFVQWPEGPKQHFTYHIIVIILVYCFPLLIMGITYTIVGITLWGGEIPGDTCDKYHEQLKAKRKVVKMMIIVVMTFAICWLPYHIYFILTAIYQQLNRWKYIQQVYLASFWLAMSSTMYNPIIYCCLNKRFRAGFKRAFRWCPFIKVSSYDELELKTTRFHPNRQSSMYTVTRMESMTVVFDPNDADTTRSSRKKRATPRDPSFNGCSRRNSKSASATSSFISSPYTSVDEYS
Assay: [3H]SR142801 Competition Binding Assay: hNK3 receptor binding experiment were performed using [3H]SR142801 (Catalog No. TRK1035, specific activity: 74.0 Ci/mmol, Amersham, GE Healthcare UK limited, Buckinghamshire, UK) and membrane isolated from HEK293 cells transiently expressing recombinant human NK3 receptor. After thawing, the membrane homogenates were centrifuged at 48,000×g for […] at 4° C., the pellets were resuspended in the 50 mM Tris-HCl, 4 mM MnCl2, 1 μM phosphoramidon, 0.1% BSA binding buffer at pH 7.4 to a final assay concentration of 5 μg protein/well. For inhibition experiments, membranes were incubated with [3H]SR142801 at a concentration equal to KD value of radioligand and 10 concentrations of the inhibitory compound (0.0003-10 μM) (in a total reaction volume of 500 μl) for 75 min at room temperature (RT). At the end of the incubation, membranes were filtered onto unitfilter (96-well white microplate with bonded GF/C filter preincubated 1 h in 0.3% PEI+0.3% BSA, Packard BioScience, Meriden, Conn.) with a Filtermate 196 harvester (Packard BioScience) and washed 4 times with ice-cold 50 mM Tris-HCl, pH 7.4 buffer. Nonspecific binding was measured in the presence of 10 μM SB222200 for both radioligands. […]
Format: cell membranes

SMILES	Ki
CCN(C(=O)Oc1ccc(F)cc1)[C@@H]1CN(C(=O)C2CCN(c3ccc(C(F)(F)F)cn3)CC2)C[C@H]1c1ccc(F)c(F)c1	9 nM
CCN(C(=O)Oc1ccc(F)cc1)[C@@H]1CN(C(=O)C2CCN(c3ccc(OC(C)=O)cn3)CC2)C[C@H]1c1ccc(Cl)cc1	6 nM
